The values that follow come from publication PMC9370056, “Pyrimidines-Based Heterocyclic Compounds: Synthesis, Cytoxicity Evaluation and Molecular Docking” (Molecules, 2022).

Series [1] concerns normal human lung fibroblasts (MRC-5).
Experimental: (§3) Preliminary in vitro anticancer activity of two compounds (2, and 3a) against the growth of five human cancer cell lines (prostate carcinoma PC3, liver carcinoma HepG-2, human colon cancer HCT-116, human breast cancer MCF-7, human lung cancer A-549) and normal human lung fibroblasts (MRC-5) were performed using the MTT assay as described in the experimental section. The inhibitory potency of the screened compounds against the tested cell lines was compared to vinblastine sulfate as a reference anticancer drug.
(§4) MRC-5 (normal human Lung fibroblast cells) were obtained from VACSERA Tissue Culture Unit. […] The normal human lung fibroblasts (MRC-5) cells were propagated in Dulbecco’s Modified Eagle’s Medium (DMEM) supplemented with 10% heat-inactivated fetal bovine serum, 1% L-glutamine, HEPES buffer, and 50µg/mL gentamycin. […] All cells were maintained at 37 °C in a humidified atmosphere with 5% CO2 and were subcultured two times a week. Chemicals used: Dimethyl sulfoxide (DMSO), MTT (3-(4,5-dimethylthiazol-2-yl)-2,5-diphenyl tetrazolium bromide), crystal violet, and trypan blue dye were purchased from Sigma (St. Louis, MO, USA). Fetal bovine serum, DMEM, RPMI-1640, HEPES buffer solution, L-glutamine, gentamycin, and 0.25% trypsin-EDTA were purchased from Lonza. Crystal violet stain (1%): composed of 0.5% (w/v) crystal violet and 50% methanol then made up to volume with deionized water and filtered through a Whatman No.1 filter paper.
(§5) For cytotoxicity assay, the normal human lung fibroblasts (MRC-5) cells were seeded in a 96-well plate at a cell concentration of 1 × 10^4 cells per well in 100 µL of growth medium. Fresh medium containing different concentrations of the test sample was added after 24 h of seeding. Serial two-fold dilutions of the tested chemical compound were added to confluent cell monolayers dispensed into 96-well, flat-bottomed microtiter plates (Falcon; Franklin, NJ, USA) using a multichannel pipette. The microtiter plates were incubated at 37 °C in a humidified incubator with 5% CO2 for a period of 24 h. Three wells were used for each concentration of the test sample. Control cells were incubated without the test sample and with or without DMSO. […] After incubation of the cells, viable cell yield was determined by a colorimetric method. After incubating for 24 h, the numbers of viable cells were determined by the MTT test. The cytotoxic concentration (CC50), the concentration required to cause toxic effects in 50% of intact cells, was estimated from graphic plots of the dose–response curve for each conc. using GraphPad Prism software (San Diego, CA. USA).
Series [2] deals with human prostate carcinoma cell line PC3. As to the kind of experiment: MTT viability assay, PC3 prostate carcinoma. It is filed as cell-based. As to conditions: for IC50: 24 h. The protocol: (§1) For antitumor assays, the human prostate carcinoma cell line PC3 was suspended in medium at a concentration of 5 × 10^4 cell/well in Corning® 96-well tissue culture plates, then incubated for 24 h. The tested compounds were then added into 96-well plates (three replicates) to achieve eight concentrations for each compound. Six vehicle controls with media or 0.5 % DMSO were run for each 96-well plate as a control. […] Briefly, the media was removed from the 96-well plate and replaced with 100 µL of fresh culture RPMI-1640 medium without phenol red then 10 µL of the 12 mM MTT stock solution (5 mg of MTT in 1 mL of PBS) to each well including the untreated controls. The 96-well plates were then incubated at 37 °C and 5% CO2 for 4 h. An 85 µL aliquot of the media was removed from the wells, and 50 µL of DMSO was added to each well and mixed thoroughly with a pipette and incubated at 37 °C for 10 min. Then, the optical density was measured at 590 nm with the microplate reader (Sunrise, Tecan Inc, Morrisville, NC, USA) to determine the number of viable cells and the percentage of viability was calculated as [(ODt/ODc)] × 100% where ODt is the mean optical density of wells treated with the tested sample and ODc is the mean optical density of untreated cells. The relation between surviving cells and drug concentration was plotted to obtain the survival curve of each tumor cell line after treatment with the specified compound.

Series [3] deals with PC3 and MRC-5 cell lines. Put plainly: Selectivity index, CC50 on normal cells / IC50 on cancer cells. It counts as cell-based, human. Conditions: CC50 on MRC-5 / IC50 on PC3. The source says: The selectivity index (SI) is a measure of the drug candidate’s selectivity towards cancer cells rather than normal cells. It can be calculated as the ratio between the tested compound CC50 on normal cells and its IC50 on cancer cells.

In series [4] the test system is human colon cancer HCT-116. Put plainly: MTT assay, HCT-116. It is filed as cell-based. Conditions: Table 1, MTT. As to the method: [The procedure below names another cell line; the source lists this cell line under the same test.] as §1
Series [5] has as its system human breast cancer MCF-7. As to the kind of experiment: MTT assay, MCF-7. It is filed as cell-based. Conditions: MCF7, Table 1, MTT. The protocol:
[The procedure below names another cell line; the source lists this cell line under the same test.] as §1

Series [6] deals with liver carcinoma HepG-2. As to the kind of experiment: MTT assay, HepG-2. It is filed as cell-based. As to conditions: Homo sapiens, HepG2; Table 1, MTT. As to the method: [The procedure below names another cell line; the source lists this cell line under the same test.] as §1
A short description of series [7]: MTT cytotoxicity assay, normal lung fibroblasts MRC-5. As to conditions: human, MRC-5 normal lung fibroblast cells.
Experimental: as §3, §4, §5
Series [8] has as its system normal human lung fibroblasts (MRC-5). The series is described as above. As to conditions: Homo sapiens, MRC5, 24 h, read-out: IC50 Values MRC-5.
Series [9] deals with human lung cancer A-549. As to the kind of experiment: MTT assay, A-549. It counts as cell-based. Conditions: A549, Table 1, MTT. The protocol: [The procedure below names another cell line; the source lists this cell line under the same test.] as §1
Series [10] has as its system MRC cell line. As to the kind of experiment: Microscopic observation of treated normal cells (crystal violet). It counts as cell-based, human. Conditions: 50 µg/mL, 100×, relative to untreated cells. The protocol:
(§2) This experiment was performed as previously described in the procedure for antitumor activity. After the end of the treatment at 50 µg/mL concentration, the plates were inverted to remove the medium, the wells were washed three times with 300 µL of phosphate buffered saline (pH 7.2), and then the cells were fixed to the plate with 10% formalin for 15 min at room temperature. The fixed cells were then stained with 100 µL of 0.25% crystal violet for 20 min. The stain was removed, and the plates were rinsed using deionized water to remove the excess stain and then allowed to dry. The cellular morphology was observed using an inverted microscope (CKX41; Olympus, Tokyo, Japan) equipped with a digital microscopy camera to capture the images representing the morphological changes compared to control cells. The cytopathic effects (morphological alterations) were microscopically detected at 100×.

Series [11] concerns PC3 cell line. Put plainly: Microscopic observation of treated tumor cells (crystal violet). It counts as cell-based, human. Conditions: 50 µg/mL, 100×, relative to untreated cells. The protocol:
as §2

Where [12] appears, read: Homo sapiens, Table 2, MTT, three replicates.

Structures can show the parent of a compound that is named as a salt.

With “3-Hydroxy-6-oxo-8-phenyl-2,6-dihydro-1H-pyrimido[2,1-c]-1,2,4-triazine-7-carbonitrile [Compound 6]”, in [1], the CC50 came out at 453 ± 13 µM. In [2] (Table 2, MTT, three replicates), this molecule returned an IC50 of 208 ± 7 µM. Besides, in series [3], the “SI (selectivity index)” value is recorded as 2.17.

With `N#Cc1c(-c2ccccc2)nc(NN)[nH]c1=O` [Compound 2, 2-Hydrazino-6-oxo-4-phenyl-1,6-dihydropyrimidine-5-carbonitrile], the IC50 in series [2] (Homo sapiens, Table 1, MTT) turned out to be 258 µM; in series [4], 180 µM; in series [5], 236 µM; in series [6] it was 99 µM; in [8], 532 µM; in [9], 264 µM. For the same molecule, the “SI (selectivity index)” value in [3] amounted to 2.05. Besides, the CC50 at 24 h in series [7] came out at 532 ± 14 µM.

As to `N#Cc1c(-c2ccccc2)nc(NN=Cc2ccccc2)[nH]c1=O` [Compound 3a, 2-(2-Benzylidenehydrazinyl)-6-oxo-4-phenyl-1,6-dihydropyrimidine-5-carbonitrile], the IC50 in series [2] (Homo sapiens, Table 1, MTT) turned out to be 93 µM; in series [4] it was 149 µM; in series [5] it was 81 µM; in series [6], 59 µM; in [8], 92 µM; in series [9], 98 µM. Besides, the “SI (selectivity index)” value in [3] is given as 0.99. Moreover, in [7], the CC50 at 24 h was 92 ± 3 µM.

As for `N#Cc1c(-c2ccccc2)nc(N/N=C/c2ccc(Br)cc2)[nH]c1=O` [Compound 3b, 2-(2-(4-Bromobenzylidene)hydrazinyl)-6-oxo-4-phenyl-1,6-dihydropyrimidine-5-carbonitri-le], the “Morphological changes of MRC cells” value in series [10] was “no significant apoptotic effect”. Moreover, the IC50 in [2] (setting [12]) stood at 21 ± 1 µM. For the same molecule, in [11], the “Morphological changes of PC3 cells” value is “the cancer cells shrank and lost their normal shape”. The same molecule had a CC50 at 24 h in [7] of 147 ± 4 µM.

Consider `N#Cc1c(-c2ccccc2)nc(N/N=C/c2ccc(Cl)cc2)[nH]c1=O` [Compound 3c, 2-(2-(4-Chlorobenzylidene)hydrazinyl)-6-oxo-4-phenyl-1,6-dihydropyrimidine-5-carbonitri-le], for which it took 349 ± 9 µM to reach half-maximal inhibition in series [2] (setting [12]) (IC50). The “SI (selectivity index)” value in [3] was determined as 1.93. In addition, in [7], the CC50 at 24 h was 675 ± 19 µM.

Turning to `N#Cc1c(-c2ccccc2)nc(N/N=C/c2ccccc2Cl)[nH]c1=O` [Compound 3d, 2-(2-(2-Chlorobenzylidene)hydrazinyl)-6-oxo-4-phenyl-1,6-dihydropyrimidine-5-carbonitri-le], in [2] (setting [12]), inhibition was half-maximal at 17 ± 1 µM (IC50). Moreover, in series [2] (PC3, from IC50 values), the “fold more potent than vinblastine sulfate” value is on record as 2 to 3 fold. Further, the “SI (selectivity index)” value in series [3] is recorded as 2.52. Besides, the CC50 at 24 h in series [7] came to 44 ± 1 µM.

In turn, `Cc1ccccc1/C=N/Nc1nc(-c2ccccc2)c(C#N)c(=O)[nH]1` [Compound 3e, 2-(2-(2-Methylbenzylidene)hydrazinyl)-6-oxo-4-phenyl-1,6-dihydropyrimidine-5-carboni-trile] yielded an IC50 in series [2] (setting [12]) of 182 ± 5 µM. Moreover, the “SI (selectivity index)” value in series [3] stood at 2.34. Further, in series [7], the CC50 at 24 h was 428 ± 16 µM.

Consider `COc1cccc(/C=N/Nc2nc(-c3ccccc3)c(C#N)c(=O)[nH]2)c1` [Compound 3f, 2-(2-(3-Methoxybenzylidene)hydrazinyl)-6-oxo-4-phenyl-1,6-dihydropyrimidine-5-carbo-nitrile], for which, in series [10], the “Morphological changes of MRC cells” value is listed as “no significant apoptotic effect”. Moreover, it took 88 ± 2 µM to reach half-maximal inhibition in [2] (setting [12]) (IC50). Moreover, the “Morphological changes of PC3 cells” value in series [11] is “the cancer cells shrank and lost their normal shape”. The molecule further gave a CC50 at 24 h in series [7] of 339 ± 11 µM.

For `N#Cc1c(-c2ccccc2)nc(N/N=C/c2ccc(O)cc2)[nH]c1=O` [Compound 3g, 2-(2-(4-Hydroxybenzylidene)hydrazinyl)-6-oxo-4-phenyl-1,6-dihydropyrimidine-5-carboni-trile], the “Morphological changes of MRC cells” value in series [10] is recorded as “no significant apoptotic effect”. In [2] (setting [12]), this molecule displayed a concentration for half-maximal inhibition (IC50) of 64 ± 3 µM. Besides, the “Morphological changes of PC3 cells” value in series [11] is “the cancer cells shrank and lost their normal shape”. Further, the CC50 at 24 h in series [7] is 311 ± 14 µM.

In the case of `N#Cc1c(-c2ccccc2)nc(NN=CC=Cc2ccccc2)[nH]c1=O` [Compound 3h, 6-Oxo-4-phenyl-2-(2-(3-phenylallylidene)hydrazinyl)-1,6-dihydropyrimidine-5-carbonitrile], the “Morphological changes of MRC cells” value in [10] was “no significant apoptotic effect”. For the same molecule, in series [2] (setting [12]), half-maximal inhibition (IC50) was put at 44 ± 2 µM. In [11], the “Morphological changes of PC3 cells” value is “the cancer cells shrank and lost their normal shape”. In addition, in series [7], the CC50 at 24 h was determined as 180 ± 9 µM.

For the molecule `N#Cc1c(-c2ccccc2)nc(NN=Cc2ccc([N+](=O)[O-])cc2)[nH]c1=O` [Compound 3i, 2-(2-(4-Nitrobenzylidene)hydrazinyl)-6-oxo-4-phenyl-1,6-dihydropyrimidine-5-carbonitrile], in series [2] (setting [12]), 37 ± 2 µM corresponded to half-maximal inhibition (IC50). For the same molecule, in series [3], the “SI (selectivity index)” value was found to be 2.18. Besides, the CC50 at 24 h in series [7] was 82 ± 3 µM.

In the case of `N#Cc1c(-c2ccccc2)nc(N/N=C2\C(=O)Nc3ccccc32)[nH]c1=O` [Compound 4, 6-Oxo-2-(2-(isatin-3-ylidene)hydrazinyl)-4-phenyl-1,6-dihydropyrimidine-5-carbonitrile], the IC50 in series [2] (setting [12]) was determined as 603 ± 19 µM. Besides, in series [3], the “SI (selectivity index)” value is given as 0.57. In series [7], this molecule came in with a CC50 at 24 h of 348 ± 11 µM.

With `N#Cc1c(-c2ccccc2)nc2n(c1=O)C(c1ccccc1)C(c1ccccc1)=NN2` (stereo not drawn) [Compound 5, 6-Oxo-3,4,8-triphenyl-4,6-dihydro-1H-pyrimido[2,1-c]-1,2,4-triazine-7-carbonitrile], the “Morphological changes of MRC cells” value in [10] was “no significant apoptotic effect”. The same molecule showed an IC50 in [2] (setting [12]) of 72 ± 2 µM. Moreover, in [11], the “Morphological changes of PC3 cells” value was “the cancer cells shrank and lost their normal shape”. This molecule came in with a CC50 at 24 h in series [7] of 263 ± 7 µM.

Turning to `CC[C@]1(O)C[C@@H]2CN(CCc3c([nH]c4ccccc34)[C@@](C(=O)OC)(c3cc4c(cc3OC)N(C)[C@H]3[C@@](O)(C(=O)OC)[C@H](OC(C)=O)[C@]5(CC)C=CCN6CC[C@]43[C@@H]65)C2)C1` [Vinblastine sulfate, reference compound], the IC50 in [2] (Homo sapiens, Table 1, MTT) worked out at 46 µM; in [4], 4 µM; in series [5], 6 µM; in series [6], 3 µM; in [8], 65 µM; in series [9] it was 27 µM. The “SI (selectivity index)” value in series [3] was determined as 1.40. Besides, the CC50 at 24 h in [7] was determined as 65 ± 2 µM.
